Where two headings read alike, the source gives them in different places.
Columns and labels:
[1] = test system: hypertensive animal (the high-renin mouse model); details: in vivo; cited from earlier work
ACE C-domain = ACE C-domain (Homo sapiens, UniProt P12821); details: cited from earlier work
[2] = cited from earlier work; for angioedema frequency: 5,770 patients with heart failure
[3] = test system: 10% human plasma supplemented with rhNEP (ACE and NEP activity); assay: Metabolism of a bradykinin 1-9 spike in human plasma (LC-MS/MS); format: biochemical; details: for initial bradykinin 1-9 spike remaining/recovered following the incubation period: 50 ng/ml BK 1-9 spike, 10% human plasma + rhNEP 200 pg/ml, 37° C.
Protocol: All samples were spiked with bradykinin 1-9 (BK1-9) at a concentration of 50 ng/ml followed by an incubation period at 37° C. Recombinant human neutral endopeptidase (rhNEP) was added to all samples at a concentration of 200 pg/ml.
The concentrations of BK 1-9 are relative to the control that was plasma spiked with BK 1-9 following the incubation period (100% spike control).
Effects on Bradykinin Peptides. The metabolism of a spike of bradykinin 1-9 (50 ng/ml) in 10% human plasma supplemented with 200 pg/ml rhNEP (R&D) in vitro, followed by LC-MS/MS-based quantification of the bradykinin metabolites bradykinin 1-9, 1-8, 1-7, 1-5, and 2-9 was examined. Briefly, samples where stabilized and spiked with 200 pg/ml of stable-isotope-labelled internal standards for bradykinin 1-9, 1-8, 1-7, 1-5, and 2-9. Following C18-based solid-phase-extraction, samples were subjected to LC-MS/MS analysis using a reversed-phase analytical column (Acquity UPLC® C18, Waters) operating in line with a XEVO TQ-S triple quadrupole mass spectrometer (Waters) in MRM mode.

[4] = patients with hypertension, cited from earlier work
[5] = test system: human plasma supplemented with recombinant human NEP (ACE and NEP activity); assay: RAS equilibrium analysis of angiotensin peptides in human plasma ex vivo (LC-MS/MS); details: human plasma + rhNEP 200 pg/ml
Protocol: Recombinant human neutral endopeptidase (rhNEP) was added to all samples at a concentration of 200 pg/ml.
Equilibrium angiotensin peptide levels were measured in plasma samples after incubating Li-Heparin samples supplemented with recombinant human NEP (rhNEP) (R&D, 200 pg/ml) at controlled pH (7.4) for a period of 30 min at 37° C. in the presence and absence of indicated compounds and enzymes. Following equilibration, samples were stabilized and spiked with stable-isotope-labelled internal standards for each angiotensin metabolite, Ang I (Ang 1-10), Ang II (Ang 1-8), Ang 1-7, Ang 1-5, Ang 2-8, Ang 3-8, Ang 2-10, Ang 2-7, Ang 1-9, and Ang 3-7, at a concentration of 200 pg/ml. Following C18-based solid-phase-extraction, samples were subjected to LC-MS/MS analysis using a reversed-phase analytical column (Acquity UPLC® C18, Waters) operating in line with a XEVO TQ-S triple quadrupole mass spectrometer (Waters) in MRM mode.

[6] = cited from earlier work
aminopeptidase P = details: cited from earlier work
[7] = 573 patients with heart failure; cited from earlier work

Sequence of ACE C-domain (P12821 643-1222 limits assumed): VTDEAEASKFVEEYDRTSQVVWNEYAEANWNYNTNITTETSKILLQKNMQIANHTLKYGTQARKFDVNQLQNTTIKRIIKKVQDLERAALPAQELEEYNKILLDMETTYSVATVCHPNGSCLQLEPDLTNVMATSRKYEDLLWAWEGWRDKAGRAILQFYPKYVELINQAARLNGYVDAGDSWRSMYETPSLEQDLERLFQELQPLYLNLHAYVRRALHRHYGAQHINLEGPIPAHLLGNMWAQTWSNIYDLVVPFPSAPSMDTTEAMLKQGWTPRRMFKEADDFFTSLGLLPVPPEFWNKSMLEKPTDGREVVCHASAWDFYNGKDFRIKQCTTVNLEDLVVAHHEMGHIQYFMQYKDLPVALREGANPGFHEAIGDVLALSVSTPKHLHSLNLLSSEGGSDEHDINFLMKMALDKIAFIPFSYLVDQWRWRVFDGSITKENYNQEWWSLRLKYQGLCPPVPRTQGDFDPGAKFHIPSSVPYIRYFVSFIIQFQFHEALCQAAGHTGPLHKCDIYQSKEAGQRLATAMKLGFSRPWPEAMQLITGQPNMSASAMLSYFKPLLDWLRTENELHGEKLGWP

## NCCCC[C@H](N[C@@H](CCc1ccccc1)C(=O)O)C(=O)N[C@@H](Cc1c[nH]c2ccccc12)C(=O)O [Lis-Trp]
[1]
  Ang II formation: suppression of Ang Il formation
  blood pressure: reduction in blood pressure equivalent to that achieved with the conventional ACE inhibitor lisinopril
  plasma BK levels: leaving BK levels unchanged

## O=C(N[C@@H](Cc1ccccc1)P(=O)(O)C1CCCC1C(=O)N[C@@H](Cc1c[nH]c2ccccc12)C(=O)O)OCc1ccccc1 (some centres unmarked) [RXP A380]
ACE C-domain
  C-domain selectivity: ~3,000 fold

## CCOC(=O)[C@H](CCc1ccccc1)N[C@@H](C)C(=O)N1CCC[C@H]1C(=O)O [enalapril]
[2]
  angioedema frequency: 0.5%

## NCCCC[C@H](N[C@@H](CCc1ccccc1)C(=O)O)C(=O)N1CCC[C@H]1C(=O)O [lisinopril]
[3]
  initial bradykinin 1-9 spike remaining/recovered following the incubation period: 57-70%
[1]
  plasma BK levels: substantial increases in plasma BK levels

## O=C(N[C@H]1CCS[C@H]2CCC[C@@H](C(=O)O)N2C1=O)[C@@H](S)Cc1ccccc1 [omapatrilat]
[2]
  angioedema frequency: 0.8%
[2]; comparison with enalapril
  primary endpoint (all-cause mortality or hospitalization for heart failure): failed to show superiority
[4]; versus lisinopril
  reduction in arterial pressure: greater reductions in arterial pressure
[4]
  excretion of ANP: increased the excretion of ANP
[3]
  initial bradykinin 1-9 spike remaining/recovered following the incubation period: 74-85%
[3]; versus solvent control plasma
  metabolism of bradykinin: decreased metabolism of bradykinin
[5]; pH 7.4, 30 min at 37° C.
  inhibition of equilibrium Ang 1-8 levels (Ang II): 93.1%
[5]; sentence follows the rhACE2 discussion
  levels of Ang 1-7: undetectable
[6]; 25,302 hypertensive subjects
  incidence of angioedema: 2.17%
[6]; African American patients
  incidence of angioedema: 5.53%
[6]; comparison with enalapril
  blood pressure reduction: superior to enalapril in reducing blood pressure
Aminopeptidase P
  inhibition of aminopeptidase P: inhibits
[7]
  benefit versus lisinopril: trend toward greater benefit

Source: US11129805B2, “Dual ACE C-domain/NEP inhibitors” (ANGIODESIGN (UK) LIMITED, priority 2016, dated 2021)
